Assay results as given in patent US9988348B1, “Synthesis and antimicrobial use of a trithiocarbonate derivative” (KING SAUD UNIVERSITY, priority 2017, dated 2018).
Converted amounts (≈) assume the structure as drawn.

What was measured:
Experiment in all cases: microdilution assay, minimal inhibitory concentration
Assay type in all cases: cell-based
[1] = tested on: Aspergillus fumigatus AUMC 8794; details: AUMC8794, A. fumigatus, water-soluble form
Description: (§1) To evaluate antimicrobial activity of the compound 4, synthesized in our laboratory as novel anti-bacterial and anti-fungal agents, the inhibition zone diameter (mm) and the minimal inhibitory concentration were determined according to (Andrews 2001; Hudzicki 2009). The test carried out on several clinical microorganisms included Gram positive bacteria (Staphylococcus aureus ATCC and Streptococcus mutans ATCC 35668), Gram negative bacteria (Escherichia coli ATCC 25922, Salmonella typhimurium ATCC 14028 and Neisseria meningitides ATCC 1302); yeasts (Candid albicans ATCC 60193, Cryptococcus neoformans Wild strain and Candida parapsilosus ATCC 22019) and molds (Aspergillus fumigatus AUMC 8794, Penicillum chrysogenum AUMC 9476 and Fusarium sp.)
(§2) The minimal inhibitory concentration (MIC) of compound 4 (water-soluble form) was determined by a microdilution assay, using Mueller-Hinton broth (for bacteria) and Potato dextrose broth (for fungi). The compound 4 was dissolved in sterile culture broth (2 mg/mL). Two fold serial dilutions were carried out to obtain concentrations ranging from 2 to 0.008 mg/mL. 95 μL of each dilution were added in 96-well plates, then each well was inoculated with 5 μL of inoculation microbial suspension (5×10^8 colony form unit (CFU)/ml). The plates were incubated at suitable conditions according to tested microorganism. After the incubation, the microbial growth was detected in the wells by p-iodonitrotetrazolium violet (Sigma, USA) reagent. Each well received 20 μL of the reagent (0.5 mg/ml) and was then incubated at 37±1° C. for 30 min. A violet color indicated microbial growth in the well. The minimal inhibitory concentration (mg/ml) of the compound 4 was estimated as the lowest concentration that inhibited microbial growth.

[2] = tested on: Candid albicans ATCC 60193; details: Candida albicans, ATCC60193; C. albicans; water-soluble form
Description: as §1, §2

[3] = tested on: Candida parapsilosus ATCC 22019; details: ATCC22019, C. parasilosus, water-soluble form
Description: as §1, §2

[4] = tested on: Cryptococcus neoformans Wild strain; details: C. neoformasn, water-soluble form
Description: as §1, §2

[5] = tested on: Escherichia coli ATCC 25922; details: ATCC25922, E. coli, water-soluble form
Description: as §1, §2

Fusarium sp. = details: water-soluble form
Description: as §1, §2

[6] = tested on: Neisseria meningitides ATCC 1302; details: ATCC1302, N. meningitides, water-soluble form
Description: as §1, §2

[7] = tested on: Penicillum chrysogenum AUMC 9476; details: P. chrysoginum; water-soluble form
Description: as §1, §2

[8] = tested on: Salmonella typhimurium ATCC 14028; details: Salmonella enterica; Sa. typhimurium; water-soluble form
Description: as §1, §2

[9] = tested on: Staphylococcus aureus ATCC; details: S. aureus, water-soluble form
Description: as §1, §2

[10] = tested on: Streptococcus mutans ATCC 35668; details: ATCC35668, S. mutans, water-soluble form
Description: as §1, §2

In the case of `CCOC(=O)CSC(=S)SCC(=O)OCC` [Compound 4, diethyl 2,2′-(thiocarbonylbis(sulfanediyl))diacetate], the MIC [1] is reported as 31.2 µg/mL (≈ 111 µM), the MIC [2] is reported as 62.5 µg/mL (≈ 221 µM) and the MIC [3] is reported as 50 µg/mL (≈ 177 µM). For the same molecule, the MIC [4] was 31.2 µg/mL (≈ 111 µM), the MIC [5] was 1000 µg/mL (≈ 3540 µM) and the MIC (Fusarium sp.) was 31.2 µg/mL (≈ 111 µM). For the same molecule, the MIC [6] was 62.5 µg/mL (≈ 221 µM), the MIC [7] was 31.2 µg/mL (≈ 111 µM) and the MIC [8] was 2000 µg/mL (≈ 7080 µM). It also gave an MIC [9] of 2000 µg/mL (≈ 7080 µM) and an MIC [10] of 62.5 µg/mL (≈ 221 µM).
